The record followed here is patent publication US5091365A, “Cyclic peptides as promoters of absorption on administration onto the mucosa” (Hoechst Aktiengesellschaft, priority 1987, dated 1992).

Data set [1] concerns female rats. The experiment in a line: Ovulation induction in PMSG-pretreated, phenobarbital-blocked female rats (number of ova counted). The class given is in vivo, rat. The method, then:
1. The effect of cyclic peptides on the nasal and rectal absorption of LHRH (gonadorelin) and LHRH agonists (for example buserelin) was investigated in the following way: female rats weighing 60 g are pretreated with horse serum gonadotropin (PMSG) 10 I.U. (day 1, 09:00) for follicle stimulation. On the third day after the pretreatment, the ovulation which spontaneously occurs at about 14:00 is suppressed by injection of phenobarbital (4 mg/animal i.p. around 13:00). The treatment with the test substance (for example LHRH or buserelin intranasally in a physiologically tolerated buffer solution of pH 3.0-7.5 in a volume of 2-20 μl, rectal administration of suppositories etc.) is carried out at about 13:30. This treatment induces ovulation dose-dependently. On the next day of the experiment (day 4) the animals are sacrificed at about 09:00, both uterine tubes are dissected out and, after staining with patent blue, the number of ova is counted under a stereomicroscope (ovulatory effect of the test substances). The increase in the absorption of the test substances from mucosal surfaces is assessed by comparison of the effect on ovulation in the absence or after addition of, for example, bacitracin 0.001-0.05M. It is also possible to use as parameter of the effect in the same design of experiment the dose-dependent increase in luteinizing hormone (LH) in the serum one hour after treatment. [Sandow J, von Rechenberg W & Jerzabek G (1976): The effect of LHRH, prostaglandins and synthetic analogues of LHRH on ovarian metabolism. Europ. J. Obstetr. Gynaec. Reprod. Biol. 6, 185-190.]

In data set [2] the test system is rat. The experiment in a line: Increase of absorption of peptide active substances from the mucosa in the rat. The format is in vivo. As for the experimental part:
1. The effect of cyclic peptides on the nasal and rectal absorption of LHRH (gonadorelin) and LHRH agonists (for example buserelin) was investigated in the following way: female rats weighing 60 g are pretreated with horse serum gonadotropin (PMSG) 10 I.U. (day 1, 09:00) for follicle stimulation. On the third day after the pretreatment, the ovulation which spontaneously occurs at about 14:00 is suppressed by injection of phenobarbital (4 mg/animal i.p. around 13:00). […] On the next day of the experiment (day 4) the animals are sacrificed at about 09:00, both uterine tubes are dissected out and, after staining with patent blue, the number of ova is counted under a stereomicroscope (ovulatory effect of the test substances). The increase in the absorption of the test substances from mucosal surfaces is assessed by comparison of the effect on ovulation in the absence or after addition of, for example, bacitracin 0.001-0.05M. […]
2. […] It emerged that both bacitracin and colistin and polymyxin B (0.01M) increased the effect of a dose of 10 ng of buserelin, measured by the areas under the curve, by a factor of 3.3-14.
3. […] GH in serum is determined 15-120 minutes after the treatment (for example nasally or rectally) by a specific radioimmunoassay.

For data set [3], the system named is female rats. In words: Release of growth hormone (GH) in serum of PMSG-pretreated rats, radioimmunoassay. The format is in vivo, rat. The note with it: for finding with other GHRH agonists on addition of bacitracin (GH release): compared with (DAla2) GRF-29 amide: 40 μg without = 20 μg with 0.001M bacitracin. The method, then:
3. The effect of cyclic peptides of the nasal absorption of GHRH analogs was investigated in the following way: In the same model as described for the ovulatory effect of LHRH, it is possible on the third day after the pretreatment with PMSG to test the release of growth hormone (GH). GH in serum is determined 15-120 minutes after the treatment (for example nasally or rectally) by a specific radioimmunoassay.

The test system of data set [4] is female rats. The experiment in a line: Increase in luteinizing hormone (LH) in serum, same design of experiment in female rats. The format is in vivo, rat.
The subject of data set [5] is male rats. The experiment in a line: LH release in male rats under urethane anesthesia over 6-7 hours. The format is in vivo, rat. The conditions noted are these: aid 0.01M, 10 ng of buserelin. As for the experimental part:
2. An example of another method suitable for detecting the enhancement of the effect due to increased absorption is determination of the LH release in male rats (weighing 100 g, under urethane anesthesia). […] It emerged that both bacitracin and colistin and polymyxin B (0.01M) increased the effect of a dose of 10 ng of buserelin, measured by the areas under the curve, by a factor of 3.3-14.

Data set [6] concerns male rats. The experiment in a line: Corticosterone release in serum of male rats after nasal ACTH analog, radioimmunoassay. The format is in vivo, rat. The conditions noted are these: over 3 h after nasal alsactide (ACTH-17) 5 μg in the presence of 0.01M bacitracin. As for the experimental part: 4. The effect of cyclic peptides on the absorption of ACTH (corticotropin) and ACTH analogs was investigated in male rats (weighing 100 g) after treatment under anesthesia with pentobarbital or ether. The corticosterone release in the serum was determined by a specific radioimmunoassay as a parameter of the effect. It emerged that the corticosterone release over 3 h after nasal treatment, for example, with the ACTH analog alsactide (ACTH-17) in a dose of 5 μg was increased by a factor of 5 in the presence of 0.01M bacitracin.

Data set [7] concerns male rats. The experiment in a line: Serum calcium concentration in male rats after intranasal salmon calcitonin. The class given is in vivo, rat. The conditions noted are these: 0.6-1.2 μg of salmon calcitonin intranasal, addition of 0.01M bacitracin, 1-6 h. As for the experimental part:
5. The effect of cyclic peptides on the absorption of calcitonin and calcitonin analogs (for example salmon calcitonin) can be investigated on male rats weighing 100 or 200 g, for example after intranasal treatment with salmon calcitonin, by determination of the serum calcium concentration over a period of 1-6 h after the treatment. It was found in this that the effect of 0.6-1.2 μg of salmon calcitonin was increased by a factor of 4-6 by addition of, for example, 0.01M bacitracin.

For data set [8], the system named is isolated gastric mucosa of the guinea pig. In words: Tolerability: patent blue permeation through isolated guinea pig gastric mucosa. From the text: 6. The tolerability of various cyclic peptides as are used as aids to increase absorption can be tested on the isolated gastric mucosa of the guinea pig. [Wirth K, Bickel M & Deutschlander N (1987): Patent blue permeation through the isolated guinea pig gastric mucosa: a quantitative method for the assessment of gastric irritants. Med. Sci. Res. 15, 881.]

The subject of data set [9] is rectal mucosa. The experiment in a line: Rectal mucosa tolerability of hard fat suppositories in rats. The class given is in vivo, rat. The note with it: hard fat suppositories with 1 mg of bacitracin, rats weighing 100 g, 3 hours after treatment. As for the experimental part:
Furthermore, the compounds according to the invention cause no sensation of pain in humans on nasal administration of 1 to 200 μl of a concentration of 10^-5 to 10^-1 mol/l. […] Local administration of the same concentration by vaginal, rectal or buccal drug forms (i.e., for example, films, tablets, suppositories) likewise causes no irritation to the mucosa.

On to `CC(C)C[C@H](NC(=O)CNC(=O)[C@H](Cc1ccc(O)cc1)NC(=O)[C@H](CO)NC(=O)[C@H](Cc1c[nH]c2ccccc12)NC(=O)[C@H](Cc1cnc[nH]1)NC(=O)[C@@H]1CCC(=O)N1)C(=O)N[C@@H](CCCNC(=N)N)C(=O)N1CCC[C@H]1C(=O)NCC(N)=O` [LHRH, LHRH (gonadorelin)], for which the “dose of LHRH giving the same ovulatory effect, without aid” value in [1] (LHRH in physiological saline containing 0.1% gelatin) turned out to be 8 µg.
As to `CCNC(=O)[C@@H]1CCCN1C(=O)[C@H](CCCNC(=N)N)NC(=O)[C@H](CC(C)C)NC(=O)[C@@H](COC(C)(C)C)NC(=O)[C@H](Cc1ccc(O)cc1)NC(=O)[C@H](CO)NC(=O)[C@H](Cc1c[nH]c2ccccc12)NC(=O)[C@H](Cc1cnc[nH]1)NC(=O)[C@@H]1CCC(=O)N1` [buserelin], in [1] (buserelin in physiological saline containing 0.1% gelatin), the “dose of buserelin giving the same ovulatory effect, without aid” value came out at 80 ng. Further, the “dose of buserelin at which ovulation occurred, rectal suppositories, without bacitracin” value in data set [1] (rectal treatment of rats with buserelin suppositories, no aid) is reported as 400 ng.
As for `C[C@H](CCC(=O)O)[C@H]1CC[C@H]2[C@@H]3CC[C@@H]4C[C@H](O)CC[C@]4(C)[C@H]3C[C@H](O)[C@]12C` [deoxycholic acid], in data set [2] (rat, in vivo), the “concentration required to increase absorption in the rat” value is 0.02 M.
For the compound (DAla2) GRF-29 amide, the “dose of (DAla2) GRF-29 amide giving corresponding GH release effect, without bacitracin” value in data set [3] (i.n., without bacitracin) was 40 µg.
Regarding (DAla2, NLeu27) GRF-29 amide, the “finding with other GHRH agonists on addition of bacitracin (GH release)” value in [3] is recorded as “similar”.
The same measure, in the same setting: with (Leu27, Gly45) GHRH (1-44) the entry was “similar”.
Regarding bacitracin, the “dose of LHRH giving the same ovulatory effect, with aid” value in [1] (LHRH in a solution of 0.001M bacitracin, equals effect of 8 μg without aid) came out at 2 µg. In addition, the “dose of buserelin giving the same ovulatory effect, with aid” value in data set [1] (buserelin in a solution of 0.001M bacitracin, equals effect of 80 ng without aid) is reported as 20 ng. Moreover, in [1] (rectal treatment of rats with buserelin suppositories plus bacitracin), the “dose of buserelin at which ovulation was induced, rectal suppositories, after addition of bacitracin” value is 50 ng. The “enhancement of absorption, factor, from LH release by buserelin” value in data set [4] (buserelin in the presence of 0.001M bacitracin) is “more than 3”. Also, the “increase of the effect of buserelin on LH release, areas under the curve, factor” value (“increase of the effect of buserelin” for short) in data set [5] is given as 3.3-14. Moreover, in [3] (i.n., addition of 0.001M bacitracin, equals effect of 40 μg without), the “dose of (DAla2) GRF-29 amide giving corresponding GH release effect, with bacitracin” value worked out at 20 µg. Also, the “increase of corticosterone release, factor” value in data set [6] is 5. Besides, in data set [7], the “increase of the effect of salmon calcitonin (serum calcium), factor” value is 4-6. The “concentration that can be placed on the mucosa without damage” value in data set [8] is “more than 0.006 M”. In addition, in [2] (addition of 0.001M bacitracin), the “increase of absorption of LHRH agonists, GHRH agonists and similar active substances, factor” value is listed as 3-4. In addition, the “inflammatory change of the rectal mucosa” value in data set [9] is listed as “no inflammatory change”.
In the case of colistin, the “enhancement of LHRH effect on investigation of the LH release” value in [4] (LHRH in the presence of 0.001M colistin) is “this effect also emerged”. Also, the “increase of the effect of buserelin” value in [5] was 3.3-14.
As to polymyxin B, the “increase of the effect of buserelin” value in data set [5] is on record as 3.3-14.
